Test results published in the NIST ThermoML archive (doi:10.1021/acs.jced.6b00828).
± gives the expanded uncertainty stated by the source.

Experiment: wn = mass fraction of the nth substance listed
Conditions: 323.15 K, 101.3 kPa, Liquid, Vibrating tube method

SMILES: [Cl-].[Cl-].[Mg+2] [magnesium chloride] + O
- mass density (w1 = 0.3732): 1343.2 ± 0.9 kg/m3

SMILES: O=[PH2][O-].[Na+] [sodium phosphinate] + O
- mass density (w1 = 0.5786): 1438.8 ± 1.1 kg/m3

SMILES: O=[PH2][O-].O=[PH2][O-].[Mg+2] [magnesium hypophosphite] + O
- mass density (w1 = 0.2243): 1167.5 ± 0.4 kg/m3
